Measurements from patent publication US20230339919A1, “BENZO OXYGEN-CONTAINING HETEROCYCLIC COMPOUNDS AND MEDICAL APPLICATION THEREOF” (AB PHARMA LTD., priority 2020, published 2023).
Entries after “also recorded” stand apart in the source; their conditions may differ. Read-outs that look alike come from different tables or passages of the source.

Tests used:
GPR40 = target: T1, GPR40 (Homo sapiens, UniProt O14842); experiment: GPR40 agonist activity, FLIPR calcium assay in CHO-K1/GPR40 cells; format: cell-based
T1 construct: expressed in transfected cells; host or cells: CHO-K1
Procedure: Inoculate CHO-K1/GPR40 cells in 384-well plates at a density of 10,000 cells/well. Cells were incubated at 37° C. for 24 hours in a 5% CO2 incubator. After the experiment, discard the cell culture medium, quickly add […] of 1× FLIPR® Calcium 6 dye containing 2.5 mM/Probenecid to each well and incubate at 37° C. for 2 hours protected from light. For the determination, different concentrations of drug ([…]) were added to the wells and the fluorescence values were read. The fluorescence excitation wavelength was 494 nm and emission wavelength was 516 nm. FLIPR instrument data, EC50 was derived from the formula Y=Bottom+(Top−Bottom)/(1+(EC50/X)^HillSlope).

[1] = Acute Toxicity Study (MTD) by gavage in healthy mice; format: in vivo; details: mouse, in vivo, po; mice, 600 mg/kg by gavage, 5 consecutive days; read-out: LD50
healthy mice = experiment: as above; format: in vivo
hERG = hERG (Homo sapiens, UniProt Q12809); experiment: hERG assay
[2] = target: BSEP bile salt transporter (Homo sapiens, UniProt O95342); experiment: BSEP (Bile Salt Export Pump) assay, taurocholic acid uptake by BSEP vesicles, LC/MS/MS; format: in vitro ADME
Source text: In this experiment, we performed a preliminary study on the inhibition of the uptake of the substrate taurocholic acid (TCA) by the BSEP bile salt transporter by LC/MS/MS. The BSEP protein microvesicles with reverse uptake ability were obtained by transfecting Hi5 cells with the BSEP gene, which is capable of TCA uptake and uptake of taurocholic acid. The principle of this experiment is to perform substrate uptake by BSEP protein microcapsules in the presence of energy ATP, the substrate TCA and the candidate compound to be tested, after a certain transit time, the energy, substrate and candidate compound were completely washed out of the microvesicle, and the absorbed substrate TCA was released by lysis of the microvesicle. […] The starting concentration of the sample was 100 mM, diluted in 2-fold gradient with Bravo apparatus, with 11 concentration gradients; the lowest point concentration was 97.65 μM. • 3. Control compound (Glyburide) starting at 20 mM, diluted in 2-fold gradient with Bravo instrument, with 11 concentration gradients; the lowest point concentration was 19.53 μM. • 4. 300 nl of compound was transferred to the middle plate using the ECHO autosampler. • 5. Positive control (HPE) wells and negative control (ZPE) wells were also transferred 300 nl DMSO each. […] Add 14.7 μl of ATP buffer to the corresponding wells of the compound and ZPE, respectively. • 2. Add 14.7 μl of AMP buffer to the corresponding wells of the HPE. • 3. Shake the plate at 25 degrees C. for 10 minutes. • 4. […] Immediately add 5 ul of 0.5M EDTA solution to all wells, and then add 65 μl of Buffer B. All reactions are completed. • 6. Transfer […] of liquid from the end of reaction compound plate to the filter plate using the spiking apparatus. • 7. After placing the liquid receiving plate under the filter plate, use a centrifuge to remove the liquid and discard the liquid received in the receiving plate. • 8. Add 90 μl of buffer B to the filter plate and repeat step 7. Repeat steps 7 and 8 to wash the filter plate a total of three times. • 9. Let the filter plate dry overnight. • 10. Add 81 μl of 80% methanol/water solution to the filter plate the next day. • 11. Apply membrane to the filter plate and vibrate the plate for 15 minutes. • 12. Place a new liquid receiver plate under the filter plate and centrifuge for 5 min to filter all the liquid from the filter plate into the receiver plate. • 13. Add 13.5 μl of internal standard solution to each well of the liquid receiver plate and seal the plate with a sealing film. • 14. Using LC/MS/MS, detect the content of taurocholic acid in the receiver plate.

[3] = GPR40 agonist activity range (EC50), CHO-K1/GPR40 cells, read-out: GPR40 activity

T1 sequence (O14842 whole entry): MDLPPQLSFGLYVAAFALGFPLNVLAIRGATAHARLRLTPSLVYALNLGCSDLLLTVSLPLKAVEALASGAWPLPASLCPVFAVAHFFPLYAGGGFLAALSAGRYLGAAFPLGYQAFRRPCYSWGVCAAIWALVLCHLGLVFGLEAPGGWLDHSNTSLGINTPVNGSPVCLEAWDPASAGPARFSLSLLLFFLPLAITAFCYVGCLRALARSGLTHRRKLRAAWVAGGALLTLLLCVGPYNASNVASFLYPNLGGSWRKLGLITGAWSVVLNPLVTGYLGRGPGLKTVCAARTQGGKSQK
BSEP bile salt transporter, sequence (O95342 whole entry): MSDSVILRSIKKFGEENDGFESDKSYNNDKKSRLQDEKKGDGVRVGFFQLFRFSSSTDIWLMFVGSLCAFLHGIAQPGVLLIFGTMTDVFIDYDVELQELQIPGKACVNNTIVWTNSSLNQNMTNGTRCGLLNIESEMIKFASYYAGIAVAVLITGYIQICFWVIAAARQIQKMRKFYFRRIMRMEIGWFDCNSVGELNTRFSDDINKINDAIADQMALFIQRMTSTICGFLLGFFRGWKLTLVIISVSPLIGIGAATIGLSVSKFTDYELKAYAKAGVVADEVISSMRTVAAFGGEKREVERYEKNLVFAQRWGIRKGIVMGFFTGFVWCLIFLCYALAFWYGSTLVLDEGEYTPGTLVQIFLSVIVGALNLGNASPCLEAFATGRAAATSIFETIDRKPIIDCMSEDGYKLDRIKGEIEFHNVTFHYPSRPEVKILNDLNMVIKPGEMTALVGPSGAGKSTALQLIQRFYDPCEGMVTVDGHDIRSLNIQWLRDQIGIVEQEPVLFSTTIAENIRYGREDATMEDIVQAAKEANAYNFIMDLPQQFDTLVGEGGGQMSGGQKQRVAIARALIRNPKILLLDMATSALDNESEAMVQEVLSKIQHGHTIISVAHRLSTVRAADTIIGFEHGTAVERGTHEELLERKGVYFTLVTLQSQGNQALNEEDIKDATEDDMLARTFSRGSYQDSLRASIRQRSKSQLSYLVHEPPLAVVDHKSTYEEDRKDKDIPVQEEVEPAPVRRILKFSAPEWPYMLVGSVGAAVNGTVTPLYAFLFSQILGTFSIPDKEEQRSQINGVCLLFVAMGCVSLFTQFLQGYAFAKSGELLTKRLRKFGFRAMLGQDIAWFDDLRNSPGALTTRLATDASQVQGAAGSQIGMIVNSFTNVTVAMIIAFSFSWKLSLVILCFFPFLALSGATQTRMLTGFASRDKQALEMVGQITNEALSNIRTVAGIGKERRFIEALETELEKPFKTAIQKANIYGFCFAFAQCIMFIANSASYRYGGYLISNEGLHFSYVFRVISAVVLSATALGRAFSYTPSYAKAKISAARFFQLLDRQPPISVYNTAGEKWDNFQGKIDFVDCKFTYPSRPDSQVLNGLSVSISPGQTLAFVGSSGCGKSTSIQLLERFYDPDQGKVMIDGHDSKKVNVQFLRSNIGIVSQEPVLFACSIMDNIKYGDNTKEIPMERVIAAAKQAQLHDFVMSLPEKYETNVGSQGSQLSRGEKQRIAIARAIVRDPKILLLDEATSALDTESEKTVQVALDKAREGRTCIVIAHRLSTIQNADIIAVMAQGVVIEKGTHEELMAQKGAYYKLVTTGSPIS
hERG, sequence (Q12809 whole entry): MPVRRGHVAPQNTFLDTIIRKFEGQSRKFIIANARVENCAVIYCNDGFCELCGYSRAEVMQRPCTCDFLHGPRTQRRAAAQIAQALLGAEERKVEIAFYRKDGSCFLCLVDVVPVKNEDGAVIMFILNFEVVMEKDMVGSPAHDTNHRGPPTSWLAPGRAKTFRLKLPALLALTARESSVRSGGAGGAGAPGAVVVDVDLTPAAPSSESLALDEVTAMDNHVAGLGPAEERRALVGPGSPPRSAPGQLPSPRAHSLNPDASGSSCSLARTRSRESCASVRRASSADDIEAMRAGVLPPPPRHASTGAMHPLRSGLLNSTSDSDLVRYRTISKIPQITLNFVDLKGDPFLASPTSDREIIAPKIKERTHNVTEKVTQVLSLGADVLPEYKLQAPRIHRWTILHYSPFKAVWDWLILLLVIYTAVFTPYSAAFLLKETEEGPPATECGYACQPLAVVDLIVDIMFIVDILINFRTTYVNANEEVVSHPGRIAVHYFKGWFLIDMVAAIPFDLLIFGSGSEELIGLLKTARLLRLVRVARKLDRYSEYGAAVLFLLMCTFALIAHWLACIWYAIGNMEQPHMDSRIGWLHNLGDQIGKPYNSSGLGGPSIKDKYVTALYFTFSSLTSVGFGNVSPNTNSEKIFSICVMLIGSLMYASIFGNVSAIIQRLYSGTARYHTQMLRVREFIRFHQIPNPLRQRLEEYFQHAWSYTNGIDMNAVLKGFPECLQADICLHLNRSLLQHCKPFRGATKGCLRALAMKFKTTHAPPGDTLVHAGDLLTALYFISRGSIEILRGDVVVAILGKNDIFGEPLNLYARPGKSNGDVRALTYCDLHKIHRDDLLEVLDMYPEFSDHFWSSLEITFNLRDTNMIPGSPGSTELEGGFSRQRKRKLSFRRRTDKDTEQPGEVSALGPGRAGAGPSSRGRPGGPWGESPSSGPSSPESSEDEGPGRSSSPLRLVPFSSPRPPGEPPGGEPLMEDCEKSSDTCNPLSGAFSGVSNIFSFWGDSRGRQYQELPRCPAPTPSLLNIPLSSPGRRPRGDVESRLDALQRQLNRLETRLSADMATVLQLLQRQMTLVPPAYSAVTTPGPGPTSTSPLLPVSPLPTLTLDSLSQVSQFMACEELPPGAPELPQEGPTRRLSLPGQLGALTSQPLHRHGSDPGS

Row | Structure (SMILES) | EC50 (GPR40; [3]) | further results
1 | Nc1cc(COc2ccc3c(c2)OC[C@H]3CC(=O)O)c2c(c1)OCO2 [IIb-44] | > 100 nM | 
2 | O=C(O)CC1CCc2cc(OCc3cccc4c3OC(F)(F)O4)ccc21 (centres unmarked) [IIb-61] | 10 to 100 nM | 
3 | O=C(O)CC1COc2cc(OCc3ccc4c(c3)OCO4)ccc21 (centres unmarked) [IIb-04] | 10 to 100 nM | 
4 | O=C(O)CC1COc2cc(OCc3cc(Cl)cc4c3OC(F)(F)O4)ccc21 (centres unmarked) [IIb-23] | 10 to 100 nM | 
5 | O=C(O)C[C@@H]1COc2cc(OCc3cc(Cl)cc4c3OC(F)(F)O4)ccc21 [IIb-56] | 10 to 100 nM | 
6 | O=C(O)C(F)C1COc2cc(OCc3cccc4c3OC(F)(F)O4)ccc21 (centres unmarked) [IIb-33] | 10 to 100 nM | 
7 | CC1(C)Oc2cc(Br)cc(COc3ccc4c(c3)OCC4CC(=O)O)c2O1 (centres unmarked) [IIb-22] | > 100 nM | 
8 | O=C(O)CC1COc2cc(OCc3ccc(Cl)c4c3OC(F)(F)O4)ccc21 (centres unmarked) [IIb-24] | > 100 nM | 
9 | O=C(O)CC1(c2ccc(OCc3cc(F)cc4c3OCO4)cc2)OCCO1 [IIb-37] | > 100 nM | 
10 | O=C(O)CC1COc2cc(OCc3cc(Cl)cc4c3OCCO4)ccc21 (centres unmarked) [IIb-10] | > 100 nM | 
11 | O=C(O)C(O)C1COc2cc(OCc3cccc4c3OC(F)(F)O4)ccc21 (centres unmarked) [IIb-32] | > 100 nM | 
12 | O=C(O)C(F)(F)C1COc2cc(OCc3cccc4c3OC(F)(F)O4)ccc21 (centres unmarked) [IIb-34] | > 100 nM | 
13 | O=C(O)CC1COc2cc(OCc3c(F)ccc4c3OCO4)ccc21 (centres unmarked) [IIb-13] | > 100 nM | 
14 | O=C(O)C(F)C1COc2cc(OCc3cc(F)cc4c3OCO4)ccc21 (centres unmarked) [IIb-57] | 10 to 100 nM | 
15 | COC(=O)Nc1cc(COc2ccc3c(c2)OC[C@H]3CC(=O)O)c2c(c1)OCO2 [IIb-47] | > 100 nM | 
16 | O=C(O)CC1COc2cc(OCc3c(Br)ccc4c3OCCO4)ccc21 (centres unmarked) [IIb-08] | > 100 nM | 
17 | CC(C)(C)OC(=O)Nc1cc(COc2ccc3c(c2)OC[C@H]3CC(=O)O)c2c(c1)OCO2 [IIb-43] | < 10 nM | EC50 (GPR40; Table 4, read-out: GPR40 Activity (hEC50)): 6.8 nM; EC50 (GPR40; read-out: GPR40 activity (EC50)): < 10 nM; LD50 at 5 days [1]: > 600 mg/kg; overall / acute toxicity (healthy mice; MTD high dose 600 mg/kg/day, mice, 600 mg/kg/day): low and very low; abnormalities in body weight and external and internal observations (healthy mice; during the dosing and 5-day recovery period, 600 mg/kg): no abnormalities; autopsy results (heart, liver, lung, kidney, intestine) (healthy mice; mice, 600 mg/kg): did not reveal any abnormal changes; also recorded: did not reveal any abnormalities; survival rate of the mice after administration (healthy mice; mice, 600 mg/kg by gavage, 5 days): 100%; IC50 (hERG): > 30000 nM; IC50 ([2]; inhibition of TCA uptake by BSEP vesicles, read-out: Potential inhibitory side effects BSEP (IC50)): 66800 nM; IC50 ([2]; read-out: BSEP): > 25000 nM; Ames assay result (Ames assay): no relevant side effects
18 | O=C(O)CC1COc2c1cc(Br)c(OCc1cccc3c1OC(F)(F)O3)c2Br (centres unmarked) [IIb-27] | > 100 nM | 
19 | O=C(O)C(F)C1COc2cc(OCc3cc(Cl)cc4c3OCO4)ccc21 (centres unmarked) [IIb-58] | 10 to 100 nM | 
20 | O=C(O)CC1COc2cc(OCc3cc(F)cc4c3OCO4)ccc21 (centres unmarked) [IIb-06] | 10 to 100 nM | 
21 | O=C(O)CC1COc2cc(OCc3cc(Br)cc4c3OCO4)ccc21 (centres unmarked) [IIb-02] | > 100 nM | 
22 | O=C(O)C[C@@H]1COc2cc(OCc3cc(OC(F)(F)F)cc4c3OCO4)ccc21 [IIb-52] | > 100 nM | 
23 | CC(C)(C)C(=O)Nc1cc(COc2ccc3c(c2)OC[C@H]3CC(=O)O)c2c(c1)OCO2 [IIb-50] | > 100 nM | 
24 | CN(C)c1cc(COc2ccc3c(c2)OC[C@H]3CC(=O)O)c2c(c1)OCO2 [IIb-41] | > 100 nM | 
25 | O=C(O)CC1COc2cc(OCc3cc(Cl)cc4c3OCO4)ccc21 (centres unmarked) [IIb-05] | 10 to 100 nM | 
26 | O=C(O)CC1COc2cc(OCc3cc(Br)cc4c3OC(F)(F)O4)ccc21 (centres unmarked) [IIb-21] | 10 to 100 nM | 
27 | CN(C)c1ccc2c(c1COc1ccc3c(c1)OC[C@H]3CC(=O)O)OCO2 [IIb-42] | > 100 nM | 
28 | CC(C)S(=O)(=O)Nc1cc(COc2ccc3c(c2)OC[C@H]3CC(=O)O)c2c(c1)OCO2 [IIb-51] | > 100 nM | 
29 | O=C(O)C[C@@H]1COc2cc(OCc3cc(I)cc4c3OCO4)ccc21 [IIb-40] | 10 to 100 nM | 
30 | NC(C(=O)O)C1COc2cc(OCc3cccc4c3OC(F)(F)O4)ccc21 (centres unmarked) [IIb-31] | > 100 nM | 
